# In ChEMBL document CHEMBL6096696, “Structure-Activity Relationship Studies of an Autophagy Inhibitor That Targets the ATG14L-Beclin1 Protein-Protein Interaction Reveal Modifications That Improve Potency and Solubility and Maintain Selectivity” (J Med Chem, 2025):
# Activity calls are given as the source filed them. No cut-off for these calls is given here.
# What was measured:
# A549 [1] = assay: Inhibition of autophagy in human A549 cells assessed as increase in fluorescence at 12.5 uM preincubated with DQ-BSA for 1 hr followed by compound addition and measured after 4 hrs by Hoechst 33342 staining based automated fluorescence microscopy analysis; format: functional, cell-based
# A549 [2] = assay: Inhibition of autophagy in human A549 cells assessed as increase in fluorescence at 100 uM preincubated with DQ-BSA for 1 hr followed by compound addition and measured after 4 hrs by Hoechst 33342 staining based automated fluorescence microscopy analysis; format: functional, cell-based
# HEK293T [3] = assay: Inhibition of C-terminal Nano-luc tagged ATG14L/C-terminal Halo-tagged Beclin 1 (unknown origin) PPI tranfected with HEK293T cells using […] at 100 uM incubated for 24 hrs by […] assay relative to control; format: cell-based; conditions: Homo sapiens, values are per cent of control
# HeLa [4] = assay: Cytotoxicity against human HeLa cells expressing eGFP-LC3 at 100 uM; format: functional, cell-based
# [5] = Selectivity ratio of inhibition of C-terminal Nano-luc tagged UVRAG/C-terminal Halo-tagged Beclin 1 (unknown origin) PPI tranfected with HEK293T cells to inhibition of C-terminal Nano-luc tagged ATG14L/C-terminal Halo-tagged Beclin 1 (unknown origin) PPI tranfected with HEK293T cells
# [6] = Kinetic aqueous solubility of compound in PBS at pH 7.4 by absorbance based analysis; format: physicochemical; conditions: read-out: Kinetic_solubility
# HEK293T [7] = assay: Inhibition of C-terminal Nano-luc tagged UVRAG/C-terminal Halo-tagged Beclin 1 (unknown origin) PPI tranfected with HEK293T cells using […] at 100 uM incubated for 24 hrs by […] assay relative to control; format: cell-based; conditions: Homo sapiens, values are per cent of control
# [8] = Inhibition of C-terminal Nano-luc tagged ATG14L/C-terminal Halo-tagged Beclin 1 (unknown origin) PPI tranfected with HEK293T cells using […] incubated for 24 hrs by […] assay; format: cell-based, Homo sapiens
# A549 [9] = assay: Inhibition of autophagy in human A549 cells assessed as increase in fluorescence at 100 nM preincubated with DQ-BSA for 1 hr followed by compound addition and measured after 4 hrs by Hoechst 33342 staining based automated fluorescence microscopy analysis; format: functional, cell-based
# A549 [10] = assay: Inhibition of autophagy in human A549 cells assessed as increase in fluorescence at 20 uM preincubated with DQ-BSA for 1 hr followed by compound addition and measured after 4 hrs by Hoechst 33342 staining based automated fluorescence microscopy analysis; format: functional, cell-based
# HeLa [11] = assay: Inhibition of autophagy in human HeLa cells expressing eGFP-LC3 at 50 uM preincubated for 20 hrs followed by chloroquine addition and measured after 4 hrs by Hoechst 33342 staining based automated fluorescence microscopy analysis; format: functional, cell-based; conditions: time 24.0 hrs
# [12] = target: Beclin 1-associated autophagy-related key regulator (Homo sapiens) (UniProt Q6ZNE5); assay: Induction of stabilization of ATG14L in human A549 cells assessed as increase in melting temperature at 100 uM incubated for 24 hrs by CETSA method; format: cell-based
# Chain of Beclin 1-associated autophagy-related key regulator (Homo sapiens) (Q6ZNE5 whole entry): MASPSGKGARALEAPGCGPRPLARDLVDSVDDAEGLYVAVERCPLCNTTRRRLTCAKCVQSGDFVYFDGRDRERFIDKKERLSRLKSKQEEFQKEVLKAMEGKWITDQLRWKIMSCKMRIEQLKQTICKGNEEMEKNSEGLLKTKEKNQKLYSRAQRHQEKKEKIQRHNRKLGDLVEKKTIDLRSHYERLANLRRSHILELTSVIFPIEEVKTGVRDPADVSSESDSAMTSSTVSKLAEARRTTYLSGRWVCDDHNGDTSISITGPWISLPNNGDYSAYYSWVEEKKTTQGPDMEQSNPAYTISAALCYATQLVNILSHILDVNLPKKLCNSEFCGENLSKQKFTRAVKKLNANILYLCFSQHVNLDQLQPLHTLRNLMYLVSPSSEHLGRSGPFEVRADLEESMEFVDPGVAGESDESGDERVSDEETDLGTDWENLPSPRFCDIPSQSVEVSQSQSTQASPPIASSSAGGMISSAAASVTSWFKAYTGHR
# HeLa [13] = assay: Inhibition of autophagy in human HeLa cells expressing eGFP-LC3 assessed as increase in LC3-II at 100 uM preincubated for 20 hrs followed by chloroquine addition and measured after 4 hrs by Hoechst 33342 staining based automated fluorescence microscopy analysis; format: functional, cell-based; conditions: time 24.0 hrs
Compound,"residual binding, % of control (HEK293T [3])",Activity (HeLa [4]),Selectivity ratio [5],solubility kinetic [6],"residual binding, % of control (HEK293T [7])",further results
Nc1ncc(-c2ccnc(Nc3ccncc3)n2)c(CC2CC2)n1,,,,,,inhibition (A549 [1]): inactive
CCCN1C(=O)COc2ccc(-c3cccc(OC(F)(F)F)c3)cc21,75.3%,Active,1.22,> 100 µM,92.4%,inhibition (A549 [2]): Active; IC50 [8]: 24.3 µM
Cc1cccc(-c2ccc3c(c2)N(Cc2noc(C4CCC4)n2)C(=O)CO3)c1Cl,80.5%,Active; Compound Showed Less Cytotoxicity,1.45,> 100 µM,117%,
CO/C1=C\C(C)=C\[C@@H](C)[C@@H](O)[C@@H](C)C/C(C)=C/C=C/[C@H](OC)[C@@H]([C@@H](C)[C@@H](O)[C@H](C)[C@@]2(O)C[C@@H](O)[C@H](C)[C@@H](C(C)C)O2)OC1=O,,,,,,inhibition (A549 [9]): inactive
Cc1c(Cl)cccc1-c1ccc2c(c1)N(Cc1noc(C3CCC3)n1)C(=O)CO2,79.7%,Active; Compound Showed Less Cytotoxicity,1.5,> 100 µM,120%,
CCCN1C(=O)COc2ccc(-c3ccc(F)cc3F)cc21,63.8%,Active,1.32,> 100 µM,84.2%,
CCN(CC)CCCC(C)Nc1ccnc2cc(Cl)ccc12 (configuration not stated),,,,,,inhibition (A549 [10]): inactive
CCCN1C(=O)COc2ccc(-c3ccncc3)cc21,106%,Active,1.03,> 100 µM,108%,
O=C1COc2ccc(-c3ccc(Cl)cc3Cl)cc2N1Cc1noc(C2CCC2)n1,89.7%,Active,1.17,> 100 µM,105%,inhibition (HeLa [11]): inactive
O=C1COc2ccc(-c3cccc(Cl)c3)cc2N1Cc1noc(C2CCC2)n1,85.1%,Active,1.32,> 100 µM,116%,inhibition (HeLa [11]): inactive
O=C1COc2ccc(-c3ccccc3Cl)cc2N1Cc1noc(C2CCC2)n1,89.9%,Active; Compound Showed Less Cytotoxicity,1.17,> 100 µM,106%,
CCCN1C(=O)COc2ccc(-c3ccccc3C)cc21,65%,Active,1.3,> 100 µM,84.6%,inhibition (A549 [2]): Active; IC50 [8]: 42.4 µM
CCN1C(=O)COc2ccc(S(=O)(=O)Nc3cccc(C)c3C)cc21,95.9%,,,> 100 µM,,Activity [12]: inactive; inhibition (HeLa [13]): Active
Cc1cccc(-c2ccc3c(c2)N(Cc2noc(C4CCC4)n2)C(=O)CO3)c1C,73.1%,Active; Compound Showed Less Cytotoxicity,1.3,> 100 µM,95.3%,inhibition (HeLa [11]): Active; IC50 [8]: 12.5 µM
CCCN1C(=O)COc2ccc(-c3ccc(Cl)cc3Cl)cc21,65.8%,Active,1.25,> 100 µM,82.6%,inhibition (A549 [2]): Active; IC50 [8]: 28.8 µM
O=C1COc2ccc(-c3cccc(Cl)c3Cl)cc2N1Cc1noc(C2CCC2)n1,86.8%,Active; Compound Showed Less Cytotoxicity,1.17,> 100 µM,101%,
O=C1COc2ccc(-c3cccc(F)c3F)cc2N1Cc1noc(C2CCC2)n1,85.1%,,1.11,> 100 µM,94.8%,
Cc1cccc(NS(=O)(=O)c2ccc3c(c2)N(Cc2noc(C4CCC4)n2)C(=O)CO3)c1C,60.6%,,,50 µM,,IC50 [8]: 33.9 µM
CCCN1C(=O)COc2ccc(Nc3cccc(C)c3C)cc21,104%,,1.04,> 100 µM,108%,

Compound,"residual binding, % of control (HEK293T [3])",Activity (HeLa [4]),Selectivity ratio [5],solubility kinetic [6],"residual binding, % of control (HEK293T [7])",further results
O=C1COc2ccc(-c3ccccc3C(F)(F)F)cc2N1Cc1noc(C2CCC2)n1,77.4%,Active; Compound Showed Less Cytotoxicity,1.27,> 100 µM,98%,
O=C1COc2ccc(Nc3ccccc3F)cc2N1Cc1noc(C2CCC2)n1,82%,,1.23,> 100 µM,101%,
CCCN1C(=O)COc2ccc(-c3ccccc3O)cc21,82.5%,Active,1.26,> 100 µM,104%,
CCCN1C(=O)COc2ccc(-c3ccccc3)cc21,63.2%,Active,1.51,> 100 µM,95.7%,inhibition (A549 [2]): Active; IC50 [8]: 56.6 µM
O=C1COc2ccc(-c3ccccc3O)cc2N1Cc1noc(C2CCC2)n1,94.9%,,1.15,> 100 µM,109%,
O=C1COc2ccc(-c3cccc(F)c3)cc2N1Cc1noc(C2CCC2)n1,90.3%,,1.11,50 µM,101%,
CC(C)c1cccc(-c2ccc3c(c2)N(Cc2noc(C4CCC4)n2)C(=O)CO3)c1,81.6%,,1.21,> 100 µM,99.1%,
CC(C)c1cccc(Nc2ccc3c(c2)N(Cc2noc(C4CCC4)n2)C(=O)CO3)c1,88.7%,,1.18,> 100 µM,105%,
Cc1cccc(Nc2ccc3c(c2)N(Cc2noc(C4CCC4)n2)C(=O)CO3)c1C,79.3%,,1.5,> 100 µM,119%,
C[C@@H]1COCCN1c1cc(=O)n2c(n1)N(Cc1cncc(Cl)c1)[C@H](C(F)(F)F)CC2,,,,,,inhibition (A549 [1]): inactive
CCCN1C(=O)COc2ccc(Nc3ccccc3Br)cc21,82.9%,,1.49,> 100 µM,108%,
CCCN1C(=O)COc2ccc(Nc3cccc(Br)c3)cc21,101%,,1.14,50 µM,116%,
O=C1COc2ccc(Nc3cccc(Cl)c3Cl)cc2N1Cc1noc(C2CCC2)n1,86.2%,,1.25,25 µM,108%,
CCCN1C(=O)COc2ccc(Nc3cccc(Cl)c3C)cc21,101%,,1.02,50 µM,104%,
CCCN1C(=O)COc2ccc(-c3ccccc3OC)cc21,79.5%,Active,1.26,> 100 µM,100%,
CC(C)c1ccccc1-c1ccc2c(c1)N(Cc1noc(C3CCC3)n1)C(=O)CO2,71.6%,Active; Compound Showed Less Cytotoxicity,1.29,> 100 µM,92.9%,
CCCN1C(=O)COc2ccc(-c3cccc(C)c3)cc21,57.3%,Active,1.59,> 100 µM,91.5%,inhibition (A549 [2]): Active; IC50 [8]: 42 µM
O=C1COc2ccc(Nc3ccc(Cl)cc3Cl)cc2N1Cc1noc(C2CCC2)n1,79.1%,,1.29,50 µM,102%,
